{
  "source": "patent US20160194352A1",
  "about": "“AMORPHOUS FORMS OF DACLATASVIR DIHYDROCHLORIDE” (Dr.Reddy's Laboratories Ltd., priority 2015, published 2016)",
  "origin": "cited, not measured here",
  "test_system": "HCV",
  "conditions": "HCV infected patients, combination therapy",
  "data": [
    {"substance": "alpha-interferon and ribavirin", "values": [
      {"measurement": "sustained efficacy, share of patients", "value": "40% of patients"}
    ]}
  ]
}
